According to ChEMBL document CHEMBL1158447, “Substituted benzimidazoles: A novel chemotype for small molecule hKSP inhibitors” (Bioorg Med Chem Lett, 2009):

What was measured:
[1] = molecular target: T1, Kinesin-like protein KIF11 (Homo sapiens, UniProt P52732); experiment: Inhibition of human kinesin spindle protein by endpoint assay
T1 sequence (P52732 whole entry): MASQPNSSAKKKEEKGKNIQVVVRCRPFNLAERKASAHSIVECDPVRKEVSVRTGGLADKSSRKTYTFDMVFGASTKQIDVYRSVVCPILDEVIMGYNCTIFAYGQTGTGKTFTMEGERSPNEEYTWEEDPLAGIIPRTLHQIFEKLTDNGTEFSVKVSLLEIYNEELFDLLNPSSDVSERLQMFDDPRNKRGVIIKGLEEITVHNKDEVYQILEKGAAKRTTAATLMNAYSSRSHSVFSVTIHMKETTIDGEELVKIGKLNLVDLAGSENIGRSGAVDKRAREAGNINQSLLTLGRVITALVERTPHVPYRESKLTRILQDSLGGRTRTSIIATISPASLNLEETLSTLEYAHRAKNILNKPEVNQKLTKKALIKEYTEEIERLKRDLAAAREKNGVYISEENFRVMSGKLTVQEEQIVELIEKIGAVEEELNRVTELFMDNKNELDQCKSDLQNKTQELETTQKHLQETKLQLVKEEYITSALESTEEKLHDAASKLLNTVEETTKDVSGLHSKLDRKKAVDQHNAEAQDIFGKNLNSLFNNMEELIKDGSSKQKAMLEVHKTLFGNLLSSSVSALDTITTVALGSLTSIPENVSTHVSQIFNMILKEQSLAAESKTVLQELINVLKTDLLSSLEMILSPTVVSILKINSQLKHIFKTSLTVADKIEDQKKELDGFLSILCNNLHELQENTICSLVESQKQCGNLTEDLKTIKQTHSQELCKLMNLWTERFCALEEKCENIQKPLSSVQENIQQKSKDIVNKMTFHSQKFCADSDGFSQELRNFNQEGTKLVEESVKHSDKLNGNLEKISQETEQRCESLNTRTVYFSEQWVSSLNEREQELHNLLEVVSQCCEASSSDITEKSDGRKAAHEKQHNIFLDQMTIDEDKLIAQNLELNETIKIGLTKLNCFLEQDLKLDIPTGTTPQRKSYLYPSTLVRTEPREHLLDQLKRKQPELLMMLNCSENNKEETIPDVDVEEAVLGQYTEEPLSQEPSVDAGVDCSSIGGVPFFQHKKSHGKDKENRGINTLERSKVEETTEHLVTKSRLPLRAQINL

[2] = molecular target: T2, Kinesin-like protein KIF3B (Homo sapiens, UniProt O15066); experiment: Inhibition of Kif3B
T2 sequence (O15066 whole entry): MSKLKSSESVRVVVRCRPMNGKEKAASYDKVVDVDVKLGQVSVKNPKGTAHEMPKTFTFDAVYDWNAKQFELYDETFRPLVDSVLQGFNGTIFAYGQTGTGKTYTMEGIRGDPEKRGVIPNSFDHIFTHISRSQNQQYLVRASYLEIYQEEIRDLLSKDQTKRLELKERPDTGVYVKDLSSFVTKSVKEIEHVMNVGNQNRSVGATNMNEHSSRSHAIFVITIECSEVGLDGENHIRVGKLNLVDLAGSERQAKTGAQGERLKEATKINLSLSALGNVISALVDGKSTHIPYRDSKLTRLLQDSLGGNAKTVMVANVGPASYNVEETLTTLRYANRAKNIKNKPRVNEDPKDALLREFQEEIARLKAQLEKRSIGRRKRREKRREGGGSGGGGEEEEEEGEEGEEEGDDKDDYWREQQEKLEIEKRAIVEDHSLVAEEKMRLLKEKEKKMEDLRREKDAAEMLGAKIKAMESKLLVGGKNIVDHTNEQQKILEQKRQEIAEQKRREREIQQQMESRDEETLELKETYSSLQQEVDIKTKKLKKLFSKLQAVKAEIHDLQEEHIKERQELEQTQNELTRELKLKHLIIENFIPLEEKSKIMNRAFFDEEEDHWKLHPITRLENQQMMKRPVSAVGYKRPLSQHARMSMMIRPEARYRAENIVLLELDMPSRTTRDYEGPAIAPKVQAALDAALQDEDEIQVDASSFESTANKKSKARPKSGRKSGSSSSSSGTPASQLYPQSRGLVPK

[3] = molecular target: T3, Kinesin heavy chain isoform 5A (Homo sapiens, UniProt Q12840); experiment: Inhibition of nKHC
T3 sequence (Q12840 whole entry): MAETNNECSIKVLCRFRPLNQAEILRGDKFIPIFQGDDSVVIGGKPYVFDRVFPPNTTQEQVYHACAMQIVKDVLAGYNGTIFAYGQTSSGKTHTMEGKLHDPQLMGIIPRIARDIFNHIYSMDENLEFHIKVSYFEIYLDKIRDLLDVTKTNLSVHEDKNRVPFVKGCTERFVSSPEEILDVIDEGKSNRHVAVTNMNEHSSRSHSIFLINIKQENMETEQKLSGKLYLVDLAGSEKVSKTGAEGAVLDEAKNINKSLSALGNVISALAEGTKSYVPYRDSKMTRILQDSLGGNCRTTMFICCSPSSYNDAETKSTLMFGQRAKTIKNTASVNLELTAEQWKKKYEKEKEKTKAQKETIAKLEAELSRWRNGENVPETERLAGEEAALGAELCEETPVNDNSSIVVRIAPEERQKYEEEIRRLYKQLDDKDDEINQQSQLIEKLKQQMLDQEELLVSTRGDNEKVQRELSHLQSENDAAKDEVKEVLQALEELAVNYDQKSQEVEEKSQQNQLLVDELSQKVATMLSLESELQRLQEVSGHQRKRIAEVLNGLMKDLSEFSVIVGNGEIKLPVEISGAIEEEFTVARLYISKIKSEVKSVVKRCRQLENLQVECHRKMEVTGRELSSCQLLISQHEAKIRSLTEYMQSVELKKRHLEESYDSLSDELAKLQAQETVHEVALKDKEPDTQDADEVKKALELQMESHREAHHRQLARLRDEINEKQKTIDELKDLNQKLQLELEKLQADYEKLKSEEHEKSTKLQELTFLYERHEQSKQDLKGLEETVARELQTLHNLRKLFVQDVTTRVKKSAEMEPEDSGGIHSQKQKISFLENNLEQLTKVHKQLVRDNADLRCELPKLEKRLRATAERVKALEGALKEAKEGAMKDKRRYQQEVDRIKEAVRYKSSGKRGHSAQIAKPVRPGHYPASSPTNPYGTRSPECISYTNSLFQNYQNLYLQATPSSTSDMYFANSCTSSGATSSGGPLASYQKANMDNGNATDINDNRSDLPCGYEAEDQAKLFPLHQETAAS

[4] = molecular target: Kinesin-like protein KIF11 (Homo sapiens) (UniProt P52732); experiment: Selectivity for human KSP over HSET

IC50 [1] | IC50 [2] | IC50 [3] | fold change (FC) [4] | Structure (SMILES)
2.1 µM | > 50 µM | > 50 µM | > 24 | NC(=O)c1ccc2c(c1)nc(Nc1ccc(S(N)(=O)=O)cc1)n2Cc1csc2ccccc12
1.4 µM | > 50 µM | > 50 µM | – | CSc1ccc(Nc2nc3cc(C(=O)O)ccc3n2Cc2ccccc2C(F)(F)F)cc1
> 20 µM | > 50 µM | > 50 µM | – | NC(=O)c1ccc2c(c1)nc(Nc1ccc(S(N)(=O)=O)cc1)n2Cc1nc2ccccc2s1
> 20 µM | – | – | – | NC(=O)c1ccc2nc(Nc3ccc(S(N)(=O)=O)cc3)n(Cc3ccccc3C(F)(F)F)c2c1
5.2 µM | > 50 µM | > 50 µM | – | CNC(=O)c1ccc2c(c1)nc(Nc1ccc(OC)cc1)n2Cc1ccccc1C(F)(F)F
6 µM | > 50 µM | > 50 µM | – | COc1ccc(Nc2nc3cc(C(=O)Nc4ccccc4OC)ccc3n2Cc2ccccc2C(F)(F)F)cc1
2.2 µM | > 50 µM | > 50 µM | – | COC(=O)c1ccc2c(c1)nc(Nc1ccc(S(N)(=O)=O)cc1)n2Cc1ccccc1C(F)(F)F
16.3 µM | > 50 µM | > 50 µM | – | CN(C)C(=O)c1ccc2c(c1)nc(Nc1ccc(S(N)(=O)=O)cc1)n2Cc1ccccc1C(F)(F)F
5 µM | > 50 µM | > 50 µM | – | COc1cccc(Cn2c(Nc3ccc(S(N)(=O)=O)cc3)nc3cc(C(N)=O)ccc32)c1OC
2.4 µM | > 50 µM | > 50 µM | – | COc1ccccc1NC(=O)c1ccc2c(c1)nc(Nc1ccc(S(N)(=O)=O)cc1)n2Cc1ccccc1C(F)(F)F
1.3 µM | > 50 µM | > 50 µM | 11 | COc1ccc(Nc2nc3cc(C(N)=O)ccc3n2Cc2ccccc2C(F)(F)F)cc1F
> 20 µM | > 50 µM | > 50 µM | – | NC(=O)c1ccc2c(c1)nc(Nc1ccc(S(N)(=O)=O)cc1)n2Cc1ccccn1
> 20 µM | > 50 µM | > 50 µM | – | COc1ccc(CNc2nc3cc(C(=O)O)ccc3n2Cc2ccccc2C(F)(F)F)cc1
> 20 µM | > 50 µM | > 50 µM | – | NS(=O)(=O)c1ccc(Nc2nc3cc(C(=O)N4CCCC4)ccc3n2Cc2ccccc2C(F)(F)F)cc1
20 µM | > 50 µM | > 50 µM | – | COc1ccccc1Cn1c(Nc2ccc(S(N)(=O)=O)cc2)nc2cc(C(N)=O)ccc21
> 20 µM | – | – | – | NC(=O)c1cc2c(cc1F)nc(Nc1ccc(S(N)(=O)=O)cc1)n2Cc1ccccc1C(F)(F)F
6.9 µM | > 50 µM | > 50 µM | 7 | CS(=O)(=O)c1ccc(Nc2nc3cc(C(=O)O)ccc3n2Cc2ccccc2C(F)(F)F)cc1
> 20 µM | > 50 µM | > 50 µM | – | CS(=O)(=O)c1ccc(CNc2nc3cc(C(=O)O)ccc3n2Cc2ccccc2C(F)(F)F)cc1

IC50 [1] | IC50 [2] | IC50 [3] | fold change (FC) [4] | Structure (SMILES)
> 20 µM | > 50 µM | > 50 µM | – | CC(c1ccccc1C(F)(F)F)n1c(Nc2ccc(S(N)(=O)=O)cc2)nc2cc(C(N)=O)ccc21 (centres undefined)
33.4 µM | > 50 µM | > 50 µM | – | COC(=O)c1ccc2c(c1)nc(Nc1ccc(SC)cc1)n2Cc1ccccc1C(F)(F)F
> 20 µM | – | – | – | CSc1ccc(Cc2nc3cc(C(=O)O)ccc3n2Cc2ccccc2C(F)(F)F)cc1
> 20 µM | > 50 µM | > 50 µM | – | NS(=O)(=O)c1ccc(CNc2nc3cc(C(=O)O)ccc3n2Cc2ccccc2C(F)(F)F)cc1
7.9 µM | – | – | – | NC(=O)c1cc2nc(Nc3ccc(S(N)(=O)=O)cc3)n(Cc3ccccc3C(F)(F)F)c2cc1F
> 20 µM | > 50 µM | > 50 µM | – | COc1ccc(Nc2nc3cc(C(=O)O)ccc3n2Cc2ccccc2C(F)(F)F)cc1
7.4 µM | > 50 µM | > 50 µM | 5 | NC(=O)c1ccc2c(c1)nc(Nc1ccc(S(N)(=O)=O)cc1)n2Cc1ccccc1C(F)(F)F
> 20 µM | > 50 µM | > 50 µM | – | O=C(O)c1ccc2c(c1)nc(NCCN1CCOCC1)n2Cc1ccccc1C(F)(F)F
> 20 µM | > 50 µM | > 50 µM | – | NC(=O)c1ccc2c(c1)nc(Nc1ccc(S(N)(=O)=O)cc1)n2C1(c2ccccc2)CC1
13.4 µM | > 50 µM | > 50 µM | – | COC(=O)c1ccc2c(c1)nc(Nc1ccc(OC)cc1)n2Cc1ccccc1C(F)(F)F
> 20 µM | > 50 µM | > 50 µM | – | NS(=O)(=O)c1ccc(Nc2nc3cc(C(=O)O)ccc3n2Cc2ccccc2C(F)(F)F)cc1
> 20 µM | – | – | – | COc1ccc(Cc2nc3cc(C(=O)O)ccc3n2Cc2ccccc2C(F)(F)F)cc1
9.2 µM | > 50 µM | > 50 µM | – | CNC(=O)c1ccc2c(c1)nc(Nc1ccc(S(N)(=O)=O)cc1)n2Cc1ccccc1C(F)(F)F
> 20 µM | > 50 µM | > 50 µM | – | Cc1ccc(CNc2nc3cc(C(=O)O)ccc3n2Cc2ccccc2C(F)(F)F)cc1
> 20 µM | > 50 µM | > 50 µM | – | NC1CCN(c2nc3cc(C(=O)O)ccc3n2Cc2ccccc2C(F)(F)F)C1 (centres undefined)
19 µM | > 50 µM | > 50 µM | – | NC(=O)c1ccc2c(c1)nc(Nc1ccc(S(N)(=O)=O)cc1)n2Cc1csc2ccc(Cl)cc12
2.3 µM | > 50 µM | > 50 µM | – | COc1ccc(Nc2nc3cc(C(=O)O)ccc3n2Cc2ccccc2C(F)(F)F)cc1F
